The values below come from PubChem BioAssay (NCI).

Some test systems named below: SF-539 CNS; SK-MEL-5 melanoma; OVCAR-8 ovarian; T-47D breast; MDA-MB-435; SN12C renal; HL-60(TB) leukemia; CCRF-CEM leukemia; NCI-H460 lung; CAKI-1 renal.
Common to all, as to assay: NCI-60 cell line screen, 48 h

Each structure is given as a SMILES string.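 Interpolation was linear, between the two tested concentrations surrounding the appropriate level; five concentrations were tested over 48 hours in 96-well plates. Abbreviation: GI50, concentration required for 50% inhibition of growth. TGI: concentration producing complete growth inhibition.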

As for `Nc1ncn(C2OC(COP(=O)(O)O)C(O)C2O)c(=O)n1` (stereo not drawn), the TGI in the assay with SF-539 CNS is more than 100 µM; with SK-MEL-5 melanoma it was more than 100 µM; in the assay on OVCAR-8 ovarian, more than 68.9 µM; with T-47D breast, more than 100 µM; in the assay with MDA-MB-435, more than 73.6 µM; in the assay with SN12C renal, more than 100 µM. Further, the TGI in the assay on HL-60(TB) leukemia is more than 100 µM; in the assay with CCRF-CEM leukemia, more than 52.4 µM; in the assay with NCI-H460 lung, more than 100 µM; in the assay on CAKI-1 renal it was more than 100 µM.

In the case of `COc1cccc(-n2ncc3c(N/N=C/c4ccc(C)cc4)ncnc32)c1`, the GI50 in the assay on SF-539 CNS was more than 25 µM; in the assay on SK-MEL-5 melanoma, more than 25 µM; in the assay on OVCAR-8 ovarian it was more than 25 µM; in the assay with T-47D breast, more than 25 µM; in the assay with MDA-MB-435 it was more than 22.4 µM; in the assay with SN12C renal, more than 25 µM. Besides, the GI50 in the assay with HL-60(TB) leukemia, in the assay on CCRF-CEM leukemia, in the assay with NCI-H460 lung and with CAKI-1 renal was more than 25 µM in each case. The TGI with SF-539 CNS, in the assay on SK-MEL-5 melanoma, in the assay on OVCAR-8 ovarian, with T-47D breast, in the assay on MDA-MB-435 and in the assay on SN12C renal was more than 25 µM each time. In addition, the TGI in the assay on HL-60(TB) leukemia, in the assay with CCRF-CEM leukemia, in the assay with NCI-H460 lung and in the assay with CAKI-1 renal was more than 25 µM in each case.

In the case of `Cc1ccc2[nH]c3c(c2c1)N=c1ccccc1=NO3`, the GI50 in the assay on SF-539 CNS was 10.6 µM; in the assay with SK-MEL-5 melanoma, 40.9 µM; in the assay with OVCAR-8 ovarian it was 17.5 µM; in the assay on T-47D breast, 74.4 µM; in the assay on MDA-MB-435, more than 100 µM; in the assay with SN12C renal it was 36.5 µM. Also, the GI50 with HL-60(TB) leukemia was more than 100 µM; in the assay with CCRF-CEM leukemia, more than 100 µM; in the assay with NCI-H460 lung it was 45.9 µM; in the assay with CAKI-1 renal, 10.5 µM. Moreover, the TGI in the assay with SF-539 CNS is 27.6 µM; in the assay on SK-MEL-5 melanoma, more than 100 µM; in the assay with OVCAR-8 ovarian, 43 µM; with T-47D breast, more than 100 µM; in the assay on MDA-MB-435, more than 100 µM; with SN12C renal, more than 100 µM. Further, the TGI was more than 100 µM in the assay on HL-60(TB) leukemia, more than 100 µM in the assay with CCRF-CEM leukemia, more than 100 µM with NCI-H460 lung and 47.6 µM in the assay with CAKI-1 renal.

With `C=C1C(=O)O[C@H]2[C@H]1CC/C(Cn1cc(Cc3c[nH]c4ccccc34)nn1)=C\CC[C@@]1(C)O[C@@H]21`, the GI50 was 1.76 µM in the assay on SF-539 CNS; 1.89 µM in the assay on SK-MEL-5 melanoma; 3.44 µM with OVCAR-8 ovarian; 1.87 µM with T-47D breast; 1.73 µM with MDA-MB-435; 1.98 µM in the assay on SN12C renal. The GI50 was 2.02 µM with HL-60(TB) leukemia, 0.718 µM in the assay with CCRF-CEM leukemia, 3.51 µM in the assay on NCI-H460 lung and 1.3 µM in the assay on CAKI-1 renal. The TGI was determined as 3.35 µM in the assay on SF-539 CNS; 3.61 µM in the assay with SK-MEL-5 melanoma; 10.7 µM in the assay with OVCAR-8 ovarian; 4.7 µM in the assay with T-47D breast; 3.46 µM with MDA-MB-435; 4.42 µM with SN12C renal. The TGI in the assay with HL-60(TB) leukemia amounted to 4.74 µM; in the assay on CCRF-CEM leukemia, 5.92 µM; in the assay on NCI-H460 lung, 10.6 µM; in the assay with CAKI-1 renal it was 2.64 µM.

On to `Cc1cc(C(=O)Nc2cc(Oc3ccc4nc(NC(=O)C5CC5)cn4n3)ccc2C)n(C)n1`, for which the GI50 was 3.35 µM in the assay on SF-539 CNS; more than 10 µM in the assay on SK-MEL-5 melanoma; more than 10 µM in the assay on OVCAR-8 ovarian; more than 10 µM with T-47D breast; 3.22 µM in the assay with MDA-MB-435; more than 10 µM in the assay on SN12C renal. Besides, the GI50 was 9.56 µM with HL-60(TB) leukemia, more than 10 µM with CCRF-CEM leukemia, more than 10 µM in the assay on NCI-H460 lung and more than 10 µM with CAKI-1 renal. Also, the TGI in the assay with SF-539 CNS, in the assay on SK-MEL-5 melanoma, in the assay with OVCAR-8 ovarian, with T-47D breast, with MDA-MB-435 and in the assay on SN12C renal was more than 10 µM each time. In addition, the TGI in the assay with HL-60(TB) leukemia, in the assay on CCRF-CEM leukemia, with NCI-H460 lung and with CAKI-1 renal was more than 10 µM in each case.

For the compound `CC(=Nc1ccccc1)C1=C(O)C(Cc2cccc(F)c2)NC1=O` (stereo not drawn), the GI50 in the assay with SF-539 CNS is 0.0374 µM; in the assay with SK-MEL-5 melanoma, 0.0343 µM; in the assay on OVCAR-8 ovarian, 0.122 µM; in the assay with T-47D breast it was 0.0425 µM; in the assay with MDA-MB-435 it was 0.018 µM; in the assay with SN12C renal it was 0.129 µM. The GI50 in the assay on HL-60(TB) leukemia is 0.0334 µM; with CCRF-CEM leukemia, 0.0581 µM; in the assay on NCI-H460 lung it was 0.0403 µM; in the assay with CAKI-1 renal it was 0.049 µM. For the same compound, the TGI with SK-MEL-5 melanoma was 1.82 µM; with OVCAR-8 ovarian, more than 100 µM; in the assay with T-47D breast, more than 100 µM; in the assay on MDA-MB-435, 0.056 µM; in the assay on SN12C renal, more than 100 µM; in the assay with CCRF-CEM leukemia it was more than 100 µM. The TGI in the assay on NCI-H460 lung and in the assay with CAKI-1 renal was more than 100 µM each time.
